Assay results reported in ChEMBL document CHEMBL1148526, “Facile purification of honokiol and its antiviral and cytotoxic properties” (J Med Chem, 2006).

Experiments:
Type in all cases: functional
PBMC [1] = assay: Cytotoxicity against human PBM cells
Vero = assay: Cytotoxicity against Vero cells; conditions: Chlorocebus sabaeus
CCRF-CEM = assay: Cytotoxicity against human CEM cells
PBMC [2] = assay: Selectivity index of antiviral vs cytoxic activity in PBM cells (CC50/EC50)

SMILES	CC50 (PBMC [1])	CC50 (Vero)	CC50 (CCRF-CEM)	Ratio CC50/EC50 (PBMC [2])
C=CCc1ccc(O)c(-c2cc(CC=C)ccc2O)c1 [MAGNOLOL]	38.6 µM	50.6 µM	99.5 µM	–
C=CCc1ccc(O)c(-c2ccc(O)c(CC=C)c2)c1 [HONOKIOL]	16.1 µM	22.5 µM	10.9 µM	5
